Patent US10202366B2, “Methods of promoting wound healing using CRM1 inhibitors” (Karyopharm Therapeutics Inc., priority 2013, dated 2019)

Tested on: MM1.S cells
Assay: MTT cell proliferation assay
Type: cell-based
Details: Homo sapiens
Description: The MTT cell proliferation assay was used to study the cytotoxic properties of certain compounds. The assay was performed according to the method described by Roche Molecular Biochemicals, with minor modifications. The assay is based on the cleavage of the tetrazolium salt, MTT, in the presence of an electron-coupling reagent. The water-insoluble formazan salt produced must be solubilized in an additional step. Cells grown in a 96-well tissue culture plate were incubated with the MTT solution for approximately 4 hours. After this incubation period, a water-insoluble formazan dye formed. After solubilization, the formazan dye was quantitated using a scanning multi-well spectrophotometer (ELISA reader). […] The cells were seeded at 5,000-10,000 cells in each well of 96-well plate in 100 μL of fresh culture medium and were allowed to attach overnight. The stock solutions of the compounds were diluted in 100 μL cell culture medium to obtain eight concentrations of each test compound, ranging from 1 nM to 30 μM. […] All optical densities were measured at 490 nm using a Vmax Kinetic Microplate Reader (Molecular Devices). In most cases, the assay was performed in duplicate and the results were presented as a mean percent inhibition to the negative control±SE. The following formula was used to calculate the percent of inhibition: Inhibition (%)=(1−(ODo/OD))×100. […]

IC50 | Compound
20 nM | CC(C)Oc1cc(-c2ncn(/C=C\C(=O)OCc3cncnc3)n2)cc(C(F)(F)F)c1 [Compound 129, Pyrimidin-5-Ylmethyl (Z)-3-(3-(3-Isopropoxy-5-(Trifluoromethyl)Phenyl)-1H-1,2,4-Triazol-1-Yl)Acrylate]
4 nM | CC(C)Oc1cc(-c2ncn(/C=C\C(=O)OCc3cnccn3)n2)cc(C(F)(F)F)c1 [Compound 130, Pyrazin-2-Ylmethyl (Z)-3-(3-(3-Isopropdxy-5-(Trifluoromethyl)Phenyl)-1h-1,2,4-Triazol-1-Yl)Acrylate]
